Assay: Ascorbic acid oxidation assay
Assay type: physicochemical
Conditions: 20 μM chelate (30 mol %), 67 μM ascorbic acid in PBS, 45 minutes, FIG. 1
Procedure: The UV-Vis spectrum of an ascorbic acid solution (67 μM, 12 μg·mL-1) in phosphate buffered saline (PBS) (3 mL) was recorded. The absorbance intensity at λmax=265 nm was observed. An aliquot (30 μL) of iron chelate of ethylenediaminetetraacetic acid (FeEDTA) in PBS (2 mM, 0.7 mg·mL-1) was added to afford a catalytic quantity of FeEDTA (20 μM, 30 mol %) with respect to ascorbic acid. The absorbance intensity (λmax=265 nm) was recorded at intervals of 1 minute for a period of 45 minutes and the data normalized to the t0 absorbance. The experiment was then repeated identically using iron chelate complex FeHBEDP(OH)3 (20 μM, 30 mol %).

O=C([O-])CN(CCN(CC(=O)[O-])CC(=O)[O-])CC(=O)[O-].[Fe+3] [FeEDTA, iron chelate of ethylenediaminetetraacetic acid]
consumption of ascorbic acid: consumes ascorbic acid completely

— patent publication US8765977B2, “Hydroxylated contrast enhancement agents and imaging method” (General Electric Company, priority 2010, dated 2014)
